In PMC5951806, “Rapid labelling and covalent inhibition of intracellular native proteins using ligand-directed N-acyl-N-alkyl sulfonamide” (Nature Communications, 2018):

Tests used:
Assay in all cases: TMT LC-MSMS of 11-labelled proteins
Type in all cases: cell-based
[1] = target: Actin, cytoplasmic 1 (ACTB) (Homo sapiens, UniProt P60709)
[2] = target: Trifunctional enzyme subunit alpha, mitochondrial (HADHA) (Homo sapiens, UniProt P40939)
[3] = target: ATP synthase subunit alpha, mitochondrial (ATP5A1) (Homo sapiens, UniProt P25705)
[4] = target: Multidrug resistance-associated protein 5 (ABCC5) (Homo sapiens, UniProt O15440)
[5] = target: Protein disulfide-isomerase (P4HB) (Homo sapiens, UniProt P07237)
[6] = target: elongation factor Tu, mitochondrial (TUFM) (Homo sapiens, UniProt P49411)
[7] = sheet Exp1, SKBR3 cells, 11 0.5 µM 3 h vs DMSO
[8] = sheet Exp1, SKBR3 cells, 11 0.5 µM 3 h vs with PU-H71 10 µM
[9] = sheet Merged, SKBR3 cells, 11 0.5 µM 3 h vs DMSO
[10] = sheet Merged, SKBR3 cells, 11 0.5 µM 3 h vs with PU-H71 10 µM

Sequence of Trifunctional enzyme subunit alpha, mitochondrial (HADHA) (P40939 37-763): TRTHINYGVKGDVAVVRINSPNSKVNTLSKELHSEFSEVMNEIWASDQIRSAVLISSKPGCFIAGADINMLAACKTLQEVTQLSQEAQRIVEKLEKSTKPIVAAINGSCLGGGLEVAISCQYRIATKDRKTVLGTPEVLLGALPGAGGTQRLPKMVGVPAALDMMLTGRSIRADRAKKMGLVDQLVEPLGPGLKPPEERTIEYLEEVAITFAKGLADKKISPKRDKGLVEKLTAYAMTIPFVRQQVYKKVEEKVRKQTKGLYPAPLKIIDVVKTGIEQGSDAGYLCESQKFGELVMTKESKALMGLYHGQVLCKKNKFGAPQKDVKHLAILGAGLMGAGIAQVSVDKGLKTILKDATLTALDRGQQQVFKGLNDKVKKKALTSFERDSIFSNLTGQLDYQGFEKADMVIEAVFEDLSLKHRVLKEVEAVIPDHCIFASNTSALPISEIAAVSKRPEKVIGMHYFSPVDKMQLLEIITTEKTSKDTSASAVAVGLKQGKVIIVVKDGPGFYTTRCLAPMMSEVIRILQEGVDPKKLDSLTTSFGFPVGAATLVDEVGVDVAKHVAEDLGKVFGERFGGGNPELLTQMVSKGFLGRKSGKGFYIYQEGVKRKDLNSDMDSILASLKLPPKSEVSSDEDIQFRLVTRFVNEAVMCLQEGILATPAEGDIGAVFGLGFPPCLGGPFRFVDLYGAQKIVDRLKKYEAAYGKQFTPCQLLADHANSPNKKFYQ
Sequence of Trifunctional enzyme subunit alpha, mitochondrial (HADHA) (P55084 34-474 partner): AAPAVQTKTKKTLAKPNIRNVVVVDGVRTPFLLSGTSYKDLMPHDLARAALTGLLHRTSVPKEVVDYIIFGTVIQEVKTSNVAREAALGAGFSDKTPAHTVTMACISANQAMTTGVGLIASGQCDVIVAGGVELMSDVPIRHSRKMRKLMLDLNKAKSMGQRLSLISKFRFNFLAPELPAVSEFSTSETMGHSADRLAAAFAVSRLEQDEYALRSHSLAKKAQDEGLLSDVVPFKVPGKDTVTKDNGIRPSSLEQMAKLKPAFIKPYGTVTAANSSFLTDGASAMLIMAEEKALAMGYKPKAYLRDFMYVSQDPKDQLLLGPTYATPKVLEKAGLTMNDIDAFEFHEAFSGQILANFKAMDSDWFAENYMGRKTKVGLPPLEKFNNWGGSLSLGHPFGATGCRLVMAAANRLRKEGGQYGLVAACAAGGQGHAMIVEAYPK
Sequence of Protein disulfide-isomerase (P4HB) (P07237 18-508): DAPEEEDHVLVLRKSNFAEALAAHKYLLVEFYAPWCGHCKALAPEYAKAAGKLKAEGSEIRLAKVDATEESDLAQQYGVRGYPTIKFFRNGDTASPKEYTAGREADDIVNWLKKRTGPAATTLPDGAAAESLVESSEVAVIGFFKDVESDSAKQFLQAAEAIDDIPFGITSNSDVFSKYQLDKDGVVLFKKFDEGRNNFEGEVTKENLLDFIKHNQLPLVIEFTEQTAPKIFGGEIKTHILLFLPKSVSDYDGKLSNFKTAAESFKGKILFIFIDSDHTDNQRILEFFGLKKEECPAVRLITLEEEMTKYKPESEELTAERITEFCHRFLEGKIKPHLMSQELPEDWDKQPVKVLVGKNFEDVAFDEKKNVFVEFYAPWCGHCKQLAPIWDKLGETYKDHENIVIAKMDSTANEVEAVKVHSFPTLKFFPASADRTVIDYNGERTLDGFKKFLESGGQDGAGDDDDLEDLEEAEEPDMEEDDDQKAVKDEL
Sequence of Multidrug resistance-associated protein 5 (ABCC5) (O15440 whole entry): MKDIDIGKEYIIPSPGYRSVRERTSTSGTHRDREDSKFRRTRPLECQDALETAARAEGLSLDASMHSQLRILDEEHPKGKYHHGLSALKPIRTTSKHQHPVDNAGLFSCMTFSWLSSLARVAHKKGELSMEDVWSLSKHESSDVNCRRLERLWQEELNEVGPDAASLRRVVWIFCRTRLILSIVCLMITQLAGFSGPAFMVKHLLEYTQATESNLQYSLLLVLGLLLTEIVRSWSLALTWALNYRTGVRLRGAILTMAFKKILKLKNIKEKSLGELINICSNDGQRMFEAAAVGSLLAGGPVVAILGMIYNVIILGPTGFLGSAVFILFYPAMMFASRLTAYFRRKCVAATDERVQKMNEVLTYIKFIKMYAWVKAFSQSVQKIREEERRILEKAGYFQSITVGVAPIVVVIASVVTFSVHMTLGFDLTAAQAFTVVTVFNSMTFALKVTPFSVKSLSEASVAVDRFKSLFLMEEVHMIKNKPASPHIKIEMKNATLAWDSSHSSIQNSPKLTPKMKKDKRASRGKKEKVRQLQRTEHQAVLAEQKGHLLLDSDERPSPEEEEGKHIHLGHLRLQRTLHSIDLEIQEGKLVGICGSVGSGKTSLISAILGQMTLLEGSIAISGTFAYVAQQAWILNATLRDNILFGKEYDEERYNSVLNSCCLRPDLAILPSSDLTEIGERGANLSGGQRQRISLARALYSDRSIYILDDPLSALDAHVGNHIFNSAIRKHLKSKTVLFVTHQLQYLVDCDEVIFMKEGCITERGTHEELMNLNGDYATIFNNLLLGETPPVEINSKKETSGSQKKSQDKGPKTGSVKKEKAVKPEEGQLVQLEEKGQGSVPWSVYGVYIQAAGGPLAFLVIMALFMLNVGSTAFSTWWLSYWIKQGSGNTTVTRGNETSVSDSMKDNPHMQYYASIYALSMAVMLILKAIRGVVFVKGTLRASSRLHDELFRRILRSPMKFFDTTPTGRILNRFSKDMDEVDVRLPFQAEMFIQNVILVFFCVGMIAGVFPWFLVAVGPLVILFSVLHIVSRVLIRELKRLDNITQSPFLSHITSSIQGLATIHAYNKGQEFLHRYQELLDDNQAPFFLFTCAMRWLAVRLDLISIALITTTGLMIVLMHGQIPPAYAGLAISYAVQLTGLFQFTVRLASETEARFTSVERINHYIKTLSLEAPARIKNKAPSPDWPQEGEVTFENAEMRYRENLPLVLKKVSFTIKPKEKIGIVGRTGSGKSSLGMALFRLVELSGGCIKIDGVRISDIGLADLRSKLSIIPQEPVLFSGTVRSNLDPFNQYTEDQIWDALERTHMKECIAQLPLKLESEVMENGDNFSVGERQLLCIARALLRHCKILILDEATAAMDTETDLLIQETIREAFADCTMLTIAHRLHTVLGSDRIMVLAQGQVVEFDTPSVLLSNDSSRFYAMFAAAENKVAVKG

For CC(=O)Oc1ccc2c(c1)Oc1cc(OC(C)=O)ccc1C21OC(=O)c2cc(C(=O)NCCOCCOCCNC(=O)CCCC(=O)N(CC#N)S(=O)(=O)c3ccc(C(=O)NCCCn4c(Sc5cc6c(cc5I)OCO6)nc5c(N)ncnc54)cc3)ccc21 [compound 11], which “Abundance Ratio: (11) / (11 with PU-H71)” value ([1]; Exp3, ACTB) is on record?
Its value is 0.843.

What about the “Abundance Ratio: (11) / (DMSO)” value ([1]; Exp3, ACTB) of the same molecule?
The value was 2.666.

And the “Abundances (Grouped): 11” value ([1]; Exp3, ACTB)?
Its value is 445.7.

What about the “Abundances (Grouped): 11 with PU-H71” value ([1]; Exp3, ACTB) of the same molecule?
The value was 528.9.

What about the “Abundance Ratio: (11) / (DMSO)” value [1, 7] of the same molecule?
Its value is 3.266.

And the “Abundance Ratio: (11) / (11 with PU-H71)” value [1, 8]?
The value was 0.822.

What about the “Abundance Ratio: (11) / (11 with PU-H71)” value ([1]; sheet Exp2, ACTB) of the same molecule?
The value was 0.825.

And the “Abundance Ratio: (11) / (DMSO)” value ([1]; sheet Exp2, ACTB)?
Its value is 3.623.

What about the “Abundances (Grouped): 11” value ([1]; sheet Exp2, ACTB) of the same molecule?
The value was 493.5.

What about the “Abundances (Grouped): 11 with PU-H71” value ([1]; sheet Exp2, ACTB) of the same molecule?
The value was 598.3.

What about the “Abundance Ratio: (11) / (DMSO)” value [1, 9] of the same molecule?
Its value is 3.272.

And the “Abundance Ratio: (11) / (11 with PU-H71)” value [1, 10]?
The value was 0.843.

And the “Abundance Ratio: (11) / (11 with PU-H71)” value ([2]; Exp3, HADHA)?
The value was 0.887.

And the “Abundance Ratio: (11) / (DMSO)” value ([2]; Exp3, HADHA)?
The value was 5.561.

And the “Abundances (Grouped): 11” value ([2]; Exp3, HADHA)?
The value was 1575.4.

What about the “Abundances (Grouped): 11 with PU-H71” value ([2]; Exp3, HADHA) of the same molecule?
The value was 1776.8.

And the “Abundance Ratio: (11) / (DMSO)” value [2, 7]?
Its value is 7.409.

What about the “Abundance Ratio: (11) / (11 with PU-H71)” value [2, 8] of the same molecule?
Its value is 0.838.

And the “Abundance Ratio: (11) / (11 with PU-H71)” value ([2]; sheet Exp2, HADHA)?
The value was 0.82.

And the “Abundance Ratio: (11) / (DMSO)” value ([2]; sheet Exp2, HADHA)?
Its value is 5.216.

And the “Abundances (Grouped): 11” value ([2]; sheet Exp2, HADHA)?
The value was 1189.7.

And the “Abundances (Grouped): 11 with PU-H71” value ([2]; sheet Exp2, HADHA)?
Its value is 1451.4.

And the “Abundance Ratio: (11) / (DMSO)” value [2, 9]?
Its value is 7.058.

What about the “Abundance Ratio: (11) / (11 with PU-H71)” value [2, 10] of the same molecule?
Its value is 0.838.

What about the “Abundance Ratio: (11) / (11 with PU-H71)” value ([3]; Exp3, ATP5A1) of the same molecule?
Its value is 0.84.

What about the “Abundance Ratio: (11) / (DMSO)” value ([3]; Exp3, ATP5A1) of the same molecule?
Its value is 3.573.

What about the “Abundances (Grouped): 11” value ([3]; Exp3, ATP5A1) of the same molecule?
Its value is 381.2.

What about the “Abundances (Grouped): 11 with PU-H71” value ([3]; Exp3, ATP5A1) of the same molecule?
The value was 453.7.

And the “Abundance Ratio: (11) / (DMSO)” value [3, 7]?
The value was 3.323.

What about the “Abundance Ratio: (11) / (11 with PU-H71)” value [3, 8] of the same molecule?
The value was 0.923.

And the “Abundance Ratio: (11) / (11 with PU-H71)” value ([3]; sheet Exp2, ATP5A1)?
Its value is 0.771.

And the “Abundance Ratio: (11) / (DMSO)” value ([3]; sheet Exp2, ATP5A1)?
The value was 3.865.

What about the “Abundances (Grouped): 11” value ([3]; sheet Exp2, ATP5A1) of the same molecule?
The value was 390.8.

What about the “Abundances (Grouped): 11 with PU-H71” value ([3]; sheet Exp2, ATP5A1) of the same molecule?
The value was 506.9.

And the “Abundance Ratio: (11) / (DMSO)” value [3, 9]?
Its value is 3.663.

What about the “Abundance Ratio: (11) / (11 with PU-H71)” value [3, 10] of the same molecule?
The value was 0.771.

What about the “Abundance Ratio: (11) / (11 with PU-H71)” value ([4]; Exp3, ABCC5) of the same molecule?
The value was 0.868.

And the “Abundance Ratio: (11) / (DMSO)” value ([4]; Exp3, ABCC5)?
The value was 4.007.

And the “Abundances (Grouped): 11” value ([4]; Exp3, ABCC5)?
Its value is 227.2.

And the “Abundances (Grouped): 11 with PU-H71” value ([4]; Exp3, ABCC5)?
The value was 261.9.

And the “Abundance Ratio: (11) / (DMSO)” value [4, 7]?
Its value is 1.935.

And the “Abundance Ratio: (11) / (11 with PU-H71)” value [4, 8]?
Its value is 1.002.

What about the “Abundance Ratio: (11) / (11 with PU-H71)” value ([4]; sheet Exp2, ABCC5) of the same molecule?
The value was 0.947.

What about the “Abundance Ratio: (11) / (DMSO)” value ([4]; sheet Exp2, ABCC5) of the same molecule?
Its value is 2.92.

And the “Abundances (Grouped): 11” value ([4]; sheet Exp2, ABCC5)?
The value was 189.2.

What about the “Abundances (Grouped): 11 with PU-H71” value ([4]; sheet Exp2, ABCC5) of the same molecule?
The value was 199.7.

And the “Abundance Ratio: (11) / (DMSO)” value [4, 9]?
The value was 3.871.

And the “Abundance Ratio: (11) / (11 with PU-H71)” value [4, 10]?
The value was 0.868.

What about the “Abundance Ratio: (11) / (11 with PU-H71)” value ([5]; Exp3, P4HB) of the same molecule?
The value was 0.934.

And the “Abundance Ratio: (11) / (DMSO)” value ([5]; Exp3, P4HB)?
Its value is 3.442.

What about the “Abundances (Grouped): 11” value ([5]; Exp3, P4HB) of the same molecule?
The value was 191.7.

And the “Abundances (Grouped): 11 with PU-H71” value ([5]; Exp3, P4HB)?
Its value is 205.3.

And the “Abundance Ratio: (11) / (DMSO)” value [5, 7]?
The value was 2.885.

What about the “Abundance Ratio: (11) / (11 with PU-H71)” value [5, 8] of the same molecule?
The value was 0.887.

What about the “Abundance Ratio: (11) / (11 with PU-H71)” value ([5]; sheet Exp2, P4HB) of the same molecule?
The value was 0.87.

And the “Abundance Ratio: (11) / (DMSO)” value ([5]; sheet Exp2, P4HB)?
The value was 2.206.

What about the “Abundances (Grouped): 11” value ([5]; sheet Exp2, P4HB) of the same molecule?
The value was 186.

And the “Abundances (Grouped): 11 with PU-H71” value ([5]; sheet Exp2, P4HB)?
The value was 213.9.

And the “Abundance Ratio: (11) / (DMSO)” value [5, 9]?
Its value is 2.274.

And the “Abundance Ratio: (11) / (11 with PU-H71)” value [5, 10]?
The value was 0.896.

And the “Abundance Ratio: (11) / (11 with PU-H71)” value ([6]; sheet Exp2, TUFM)?
The value was 1.006.

And the “Abundance Ratio: (11) / (DMSO)” value ([6]; sheet Exp2, TUFM)?
Its value is 2.039.

What about the “Abundances (Grouped): 11” value ([6]; sheet Exp2, TUFM) of the same molecule?
Its value is 67.3.

And the “Abundances (Grouped): 11 with PU-H71” value ([6]; sheet Exp2, TUFM, with PU-H71)?
Its value is 66.9.

And the “Abundance Ratio: (11) / (DMSO)” value [6, 9]?
The value was 2.024.

And the “Abundance Ratio: (11) / (11 with PU-H71)” value [6, 10]?
Its value is 0.818.
